Reference: article PMC6594753, “Cystic fibrosis drug ivacaftor stimulates CFTR channels at picomolar concentrations” (eLife, 2019)
Several values for one entry are separate records, joined by “and”; a condition that tells them apart may be missing. Identical values can stand only once.

Experiments:
[1] = Thermodynamic parameters of the Vx-770 aqueous solution process; type: physicochemical
Procedure: As a further parameter of clinical interest, we also determined the aqueous solubility of Vx-770 at body temperature (pH = 7.1). […] The standard enthalpy of solution, estimated from the solubilities at 37°C vs. 25°C, is ΔH^osol = +51.2 kJ/mol, and the standard free energy of solution at 25°C is ΔG^osol = +41.1 kJ/mol (Materials and methods).
The standard enthalpy of solution was calculated as ΔH^osol = ((RT1T2)/(T2−T1))⋅ln(S(T2)/S(T1)), where R = 8.31 Jmol^−1K^−1, T1 = 298 K (25°C), T2 = 310 K (37°C), and S(T1) and S(T2) are the measured aqueous solubilities of Vx-770 at the respective temperatures (pH = 7.1). The standard free energy of solution at T = 298 K (25°C) was calculated as ΔG^osol = −RT⋅ln(S(T)).

[2] = target: T1, G551D CFTR (Homo sapiens, UniProt P13569, G551D); assay: Quasi-macroscopic current recording in excised inside-out patches from Xenopus laevis oocytes; type: biochemical
T1 construct: expressed in transfected cells; host or cells: Xenopus laevis oocytes injected with cRNA transcribed from mutated pGEMHE-CFTR
T1 sequence (P13569 whole entry G551D): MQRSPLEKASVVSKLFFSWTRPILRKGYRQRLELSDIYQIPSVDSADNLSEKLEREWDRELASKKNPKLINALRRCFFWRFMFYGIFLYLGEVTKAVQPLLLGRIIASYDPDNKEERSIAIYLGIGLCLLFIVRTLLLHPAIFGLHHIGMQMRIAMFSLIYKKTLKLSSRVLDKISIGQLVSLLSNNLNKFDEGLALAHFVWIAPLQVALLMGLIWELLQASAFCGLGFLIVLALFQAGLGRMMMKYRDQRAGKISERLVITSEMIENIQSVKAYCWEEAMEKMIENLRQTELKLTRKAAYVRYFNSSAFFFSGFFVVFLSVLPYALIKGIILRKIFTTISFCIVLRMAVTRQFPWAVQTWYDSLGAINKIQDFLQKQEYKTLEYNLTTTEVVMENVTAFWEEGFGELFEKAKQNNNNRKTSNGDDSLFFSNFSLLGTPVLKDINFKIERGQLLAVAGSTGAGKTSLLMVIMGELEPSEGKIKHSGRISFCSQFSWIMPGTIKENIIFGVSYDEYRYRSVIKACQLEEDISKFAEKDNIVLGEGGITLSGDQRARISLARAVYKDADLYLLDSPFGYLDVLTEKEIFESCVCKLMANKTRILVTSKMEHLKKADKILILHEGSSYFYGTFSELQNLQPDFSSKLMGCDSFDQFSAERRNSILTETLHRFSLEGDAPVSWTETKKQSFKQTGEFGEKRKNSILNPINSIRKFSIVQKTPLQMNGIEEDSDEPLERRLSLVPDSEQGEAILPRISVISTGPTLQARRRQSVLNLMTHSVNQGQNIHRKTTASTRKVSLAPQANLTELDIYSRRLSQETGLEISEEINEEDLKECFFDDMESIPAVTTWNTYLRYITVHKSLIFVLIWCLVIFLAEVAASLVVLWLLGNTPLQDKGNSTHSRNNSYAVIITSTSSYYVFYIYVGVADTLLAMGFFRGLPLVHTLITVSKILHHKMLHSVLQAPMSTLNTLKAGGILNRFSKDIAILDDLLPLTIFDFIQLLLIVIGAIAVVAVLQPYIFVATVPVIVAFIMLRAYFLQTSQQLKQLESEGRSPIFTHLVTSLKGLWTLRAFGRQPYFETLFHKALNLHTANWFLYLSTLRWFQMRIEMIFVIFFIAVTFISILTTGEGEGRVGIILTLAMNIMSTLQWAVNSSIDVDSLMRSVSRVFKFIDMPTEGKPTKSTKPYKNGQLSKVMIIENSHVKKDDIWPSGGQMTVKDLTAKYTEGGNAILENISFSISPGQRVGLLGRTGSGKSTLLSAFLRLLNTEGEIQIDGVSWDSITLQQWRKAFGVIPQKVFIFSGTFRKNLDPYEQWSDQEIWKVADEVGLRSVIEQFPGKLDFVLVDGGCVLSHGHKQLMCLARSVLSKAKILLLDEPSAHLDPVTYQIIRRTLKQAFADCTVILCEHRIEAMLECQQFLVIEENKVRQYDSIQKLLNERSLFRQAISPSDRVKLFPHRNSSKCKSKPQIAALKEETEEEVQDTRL
Source text: (§1) We reasoned that this circumstance might explain some of the puzzling features of the drug, such as CFTR channel inactivation observed in some cases ([Cholon et al., 2014]), as well as apparent irreversibility of drug effects ([Jih and Hwang, 2013]; [Lin et al., 2016]; [Yeh et al., 2015]; [Yeh et al., 2017]; [Wang et al., 2014]; [Wang et al., 2018]). To investigate stability and reversibility of Vx-770 effects in a concentration range that can be achieved in the human body during oral drug administration, we tested the effects of our 1x saturated Vx-770 solution and its dilutions in inside-out patches excised from Xenopus laevis oocytes expressing WT or mutant human CFTR channels.
(§2) The G551D and ΔF508 mutations were introduced into pGEMHE-CFTR using the QuikChange Kit (Agilent, Santa Clara, CA, USA), and confirmed by automated sequencing; cDNA was purified (HiSpeed Plasmid Midi Kit, Qiagen), transcribed in vitro (mMessage T7 Kit, ThermoFisher Scientific, Waltham, MA USA) and cRNA stored at −80°C.
(§3) Patch pipette solution contained (in mM): 136 NMDG-Cl, 2 MgCl2, 5 HEPES, pH = 7.4 with NMDG. Bath solution contained (in mM): 134 NMDG-Cl, 2 MgCl2, 5 HEPES, 0.5 EGTA, pH = 7.1 with NMDG. MgATP (2 mM) was added from a 400 mM aqueous stock solution (pH = 7.1 with NMDG). Before each experiment 300 nM catalytic subunit of PKA (Sigma-Aldrich Kft., Budapest, Hungary) was applied for ~1 min to phosphorylate CFTR channels. Vx-770 (Selleck Chemicals) was diluted into the bath solution either from a ‘1x saturated’ aqueous stock solution (see above, concentration ~62 nM), or from a commercially obtained 10 mM stock dissolved in DMSO (Selleck Chemicals). Following patch excision the patch pipette was moved into a flow chamber, and recordings were done under continuous superfusion of the cytosolic patch surface. Solution compositions were exchanged using computer-driven electronic valves (solution exchange time constant <50 ms). After each recording day perfusion tubings were extensively washed with distilled water. Although supersaturated solutions of Vx-770 were not employed here, any perfusion tubing that had ever been in contact with a given concentration of Vx-770 was subsequently used only for solutions that contained the same, or higher, concentrations of the drug. After every 5–6 experimental days the entire perfusion system was replaced. Currents were recorded at 25°C, at a membrane potential of −40 mV, digitized at 10 kHz, Gaussian-filtered at 2 kHz, and recorded to disk (Axopatch 200B, Digidata 1322A, Pclamp9 (Molecular Devices, RRID: SCR_011323)). For display purposes, currents are shown filtered at 10 Hz and sampled at 20 Hz, and expanded single-channel traces (Figure 2b, Figure 4d) are shown filtered at 50 Hz and sampled at 250 Hz.
(§4) Vx-770 was applied after currents elicited by 2 mM ATP had stabilized. To allow for full development of its potentiator effect, Vx-770 was superfused until the current reached steady state which, for low nanomolar Vx-770, required up to 5–6 min. After full stimulation, Vx-770 was washed off for at least 5 min to allow the current to decline to a post-drug steady state. Fractional current stimulation by Vx-770 (I/Icontrol) was calculated as the mean steady current in the presence of the drug, divided by the average of the pre- and post-drug mean steady currents. Dose response curves (Figure 3c,f) were least-squares fitted to the modified Hill equation I/Icontrol=(K0.5^n+(Imax/Icontrol)[Vx-770]^n)/(K0.5^n+[Vx-770]^n), with Imax/Icontrol, K0.5, and n as free parameters.
(§5) To obtain apparent deactivation rates, current decay time courses following Vx-770 removal were fitted by single exponentials using least squares, and deactivation rates defined as the inverse of the decay time constant (1/τoff; Figure 4c). To obtain apparent activation rates, current activation time courses upon Vx-770 addition were fitted to an empirical three-step kinetic scheme S1→S2→S3→S4. […]

[3] = target: T2, ΔF508 CFTR (Homo sapiens, UniProt P13569, DEL508-508); assay: as above; type: biochemical
T2 construct: expressed in transfected cells; host or cells: Xenopus laevis oocytes injected with cRNA transcribed from mutated pGEMHE-CFTR
T2 sequence (P13569 with tags, fused parts or gaps DEL508-508): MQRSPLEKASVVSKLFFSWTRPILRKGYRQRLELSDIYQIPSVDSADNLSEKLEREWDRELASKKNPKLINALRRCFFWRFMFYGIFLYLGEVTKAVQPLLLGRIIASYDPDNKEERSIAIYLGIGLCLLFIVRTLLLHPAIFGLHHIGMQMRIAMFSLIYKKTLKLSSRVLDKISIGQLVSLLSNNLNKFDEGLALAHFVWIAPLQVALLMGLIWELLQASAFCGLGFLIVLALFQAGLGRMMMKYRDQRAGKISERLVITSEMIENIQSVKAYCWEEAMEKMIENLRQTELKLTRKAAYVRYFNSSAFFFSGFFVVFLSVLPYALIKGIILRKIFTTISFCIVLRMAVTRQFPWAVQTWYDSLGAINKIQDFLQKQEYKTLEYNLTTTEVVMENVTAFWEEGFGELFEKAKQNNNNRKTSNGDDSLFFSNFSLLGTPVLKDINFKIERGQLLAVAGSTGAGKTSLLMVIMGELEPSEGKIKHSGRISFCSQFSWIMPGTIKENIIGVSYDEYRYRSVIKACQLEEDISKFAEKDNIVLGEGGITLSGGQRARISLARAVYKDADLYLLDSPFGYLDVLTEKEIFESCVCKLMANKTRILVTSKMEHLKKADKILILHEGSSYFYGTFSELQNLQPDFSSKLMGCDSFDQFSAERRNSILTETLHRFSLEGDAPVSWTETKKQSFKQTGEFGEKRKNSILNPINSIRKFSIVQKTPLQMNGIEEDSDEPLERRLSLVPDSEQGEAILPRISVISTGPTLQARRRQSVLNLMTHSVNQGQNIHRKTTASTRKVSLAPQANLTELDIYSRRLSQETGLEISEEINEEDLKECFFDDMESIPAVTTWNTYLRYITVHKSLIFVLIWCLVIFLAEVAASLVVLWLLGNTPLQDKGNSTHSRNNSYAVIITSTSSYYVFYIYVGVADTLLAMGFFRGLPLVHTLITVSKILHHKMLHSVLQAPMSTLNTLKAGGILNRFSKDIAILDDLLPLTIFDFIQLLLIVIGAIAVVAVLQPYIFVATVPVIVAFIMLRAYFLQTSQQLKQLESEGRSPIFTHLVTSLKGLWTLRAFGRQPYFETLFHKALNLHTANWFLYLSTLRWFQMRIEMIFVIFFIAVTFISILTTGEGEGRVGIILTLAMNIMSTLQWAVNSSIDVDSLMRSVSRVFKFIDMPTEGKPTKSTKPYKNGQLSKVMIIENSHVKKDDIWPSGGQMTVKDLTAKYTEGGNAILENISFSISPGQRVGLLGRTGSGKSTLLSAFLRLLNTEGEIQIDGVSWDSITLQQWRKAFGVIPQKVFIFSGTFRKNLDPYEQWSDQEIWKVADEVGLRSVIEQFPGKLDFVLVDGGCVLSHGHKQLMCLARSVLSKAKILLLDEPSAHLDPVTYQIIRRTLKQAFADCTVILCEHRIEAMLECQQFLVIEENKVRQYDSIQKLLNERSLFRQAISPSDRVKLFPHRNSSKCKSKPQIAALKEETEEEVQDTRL
Source text: as §1, §2, §3, §4, §5

[4] = diluted from 1x saturated aqueous stock, 2 mM ATP, read-out: K0.5 for current stimulation

In the case of `CC(C)(C)c1cc(C(C)(C)C)c(NC(=O)c2c[nH]c3ccccc3c2=O)cc1O` [Vx-770, ivacaftor], the “TΔS^osol” value ([1]; 25°C) is reported as “+10.1 kJ/mol”, the “standard free energy of solution ΔG^osol” value ([1]; 25°C) is reported as “+41.1 kJ/mol” and the “standard enthalpy of solution ΔH^osol” value ([1]; from aqueous solubilities at 37°C vs. 25°C, pH 7.1) is reported as “+51.2 kJ/mol”. The Hill coefficient [2] was 1.22±0.10, the “potency higher than previously reported” value [2] was ~ 200 fold and the “reversibility of current stimulation” value [2] was “fully reversible”. The “time constant of reversal” value [2] was ~ 2 min, the EC50 [2, 4] was 1.42 nM and ~1.5 nM and the Hill coefficient [3] was 1.12±0.07. The “reversibility of current stimulation” value [3] was “fully reversible”, the “time constant of reversal” value [3] was ~ 2 min and the EC50 [3, 4] was 1.53 nM and ~1.5 nM.
